Assay results published in ChEMBL document CHEMBL5136967, “Identification of molecular glues of the SLP76/14-3-3 protein-protein interaction” (RSC Med Chem, 2021).

species on record: Homo sapiens; assay: Binding affinity to His6-tagged/Tb-labelled 14-3-3gamma (unknown origin)/His6-SUMO-tagged/AF647-labelled SLP76 (unknown origin) expressed in Noco21 (DE3) cells assessed as fold change in KD improvement by HTRF assay

SMILES | fold change (FC)
CC1=CCC2COC(C[N+]3(C)CCCCC3)C1C2 (configuration not stated) | 4.7
COc1ccc(C(=O)N2C[C@@H]3CN(CCO3)C(=O)[C@@H]3C[C@@H](CN3Cc3ccc4c(c3)OCO4)NC(=O)C[C@@H]3O[C@H](C2)[C@@H](O)[C@H]3O)cc1 | 3.4
CC(C)N1CC[C@H]2COC(=O)N2c2cc(F)ccc2C1 | 4.1
O=C(Cn1nc(C(F)(F)F)c2c1CCCC2)Nc1ccc(Cl)c(Cl)c1 | 14.6
c1cc(-c2nnc3scnn23)ccn1 | 4.4
O=C1OC[C@@H]2CCN(Cc3ccccc3)Cc3ccccc3N12 | 3.3
O=C(c1ccc(Cl)cc1)n1c(Cn2nnc(-c3cccc4ccccc34)n2)n[nH]c1=S | 1.8
Fc1ccc(OCc2nn3c(Cn4cnc5ccccc54)nnc3s2)cc1 | 3.5
CC(C)CNC(=O)c1ccc2c(c1)nc1n2CCN(C(C)C)C1=O | 5.2
CC1=Nn2c(nnc2-c2ccoc2C)SC1 | 1.4
COc1ccccc1-c1nnc2scnn12 | 11
S=c1[nH]nc(Cn2nnc3ccccc32)o1 | 1.1
